The subject of this assay is c-Myc. In words: BRD4 human c-Myc ELISA assay in 22RV-1 cells. The format is cell-based. The settings on record: 22Rv1, 18 hours. The procedure: 6. BRD4 Human c-Myc ELISA Assay Protocol
22RV-1 cells were seeded at 30,000 cells/well at a volume of 75 μL/well in RPMI with 10% FBS media in 96-well plates and grown overnight at 37° C. Cells were dosed with compounds at 4× concentration diluted in 0.4% DMSO; compounds were serially diluted 1:3 for 8-point dose curve. Twenty-five (25) ul of the compounds was added to cells for a final concentration starting at 300 nM-0.3 nM or 1 uM-1 nM in 0.1% DMSO and incubated for 18 hours. Media was aspirated, cells were washed 1× with PBS and aspirated. Cells were lysed in 50 ul RIPA buffer (50 mM Tris pH8, 150 mM NaCl, 1% Tx-100, 0.1% SDS, 0.5% sodium deoxycholate) supplemented with protease and phosphatase inhibitors. Plates were incubated on ice for 15 minutes then centrifuged at 4° C. for 10 minutes at 4000 rpm. Fifty (50) ul of cleared lysate from a 96-well assay plate was added into 96-well c-myc ELISA plate (Novex, Life Technologies Catalog #KH02041). c-myc standard was reconstituted with standard diluent buffer; standard curve range of 333 pg/ml-0 pg/ml was prepared, diluted 1:2 for 8-point dose curve. The rest of the assay was performed following the protocol from the c-myc ELISA kit. Data was analyzed and plotted using GraphPad Prism software.
Background: In an ELISA, binding on a coated surface is turned into a signal by an enzyme label.

Where only a bound is given, the exact number is not on record here.

Results on one molecule are retold here after patent US12441708B2, “Cereblon ligands and bifunctional compounds comprising the same” (Arvinas Operations, Inc., priority 2017, dated 2025).

With `Cc1sc2c(c1C)C(c1ccc(Cl)cc1)=NC(CC(=O)NCCCOCCCOc1ccc3ncc(-n4ccc(=O)[nH]c4=O)cc3c1)c1nnc(C)n1-2` (stereo not shown) [PROTAC-1, 2-(4-(4-chlorophenyl)-2,3,9-trimethyl-6H-thieno[3,2-f] [1,2,4]triazolo[4,3-a][1,4]diazepin-6-yl)-N-(3-(3-((3-(2,4-dioxo-3,4-dihydropyrimidin-1(2H)-yl)quinolin-6-yl)oxy)propoxy)propyl)acetamide], the IC50 is not below 0.1 µM.

What is called IC50 is the concentration that inhibits the measured activity by half. Read a high IC50 as weaker potency.
